For 89 sequences, target mRNA inhibition results are on record in the OligoGym collection.

In the data set the target is IRF4. The conditions noted are these: ASO.

Several values for one entry are separate records, joined by “and”; a condition that tells them apart may be missing. Equal values may be shown once. After the bases stand the sugars from the 5' end (letter, count) and the backbone: PS all phosphorothioate, else s phosphorothioate and o phosphodiester by linkage. Methylation of C is not given here. e = 2'-O-(2-methoxyethyl) (MOE); k = constrained ethyl (cEt); d = 2'-deoxy (DNA)

On to CCGCACGCAAGGCTCG (sugars k3 d10 k3, PS), for which, where the note is “SK-MEL-28, 4 µM”, the target mRNA inhibition is 16%.

Regarding ATTCATGATGTATACC (sugars k3 d10 k3, PS), the target mRNA inhibition (SK-MEL-28, 4 µM) came to 62%.

Take TTAGAAAGCCCTCACC (sugars k3 d10 k3, PS): the target mRNA inhibition (SK-MEL-28, 4 µM) was -16%.

Turning to GCTCACAGATTAATAG (sugars k3 d10 k3, PS), under “SK-MEL-28, 4 µM”, the target mRNA inhibition came out at 16%. Same read-out and setting: to GGAGTAATAGTAAATA (sugars k3 d10 k3, PS) belongs 36%. The same measure, in the same setting: the same measure for GCCCGGAGGAAGGGCG (sugars k3 d10 k3, PS): -6%; for GTTCTCTACTGTTTGT (sugars k3 d10 k3, PS): 68%. Take “ATTATATACTGGTTGG (sugars kkddddddddddkeke, PS)”: for the setting “MM.1R, 1 µM”, the target mRNA inhibition was 32%.

Consider “GTGATAGCTGAGCTGA (sugars k2 d9 e3 k2, PS)”, for which the target mRNA inhibition (MM.1R, 1 µM) came out at 13%. With TTTTTCTCACCATGGC (sugars k3 d10 k3, PS), the target mRNA inhibition (SK-MEL-28, 4 µM) is 74%. In the case of TGTGATAGCTGAGCTG (sugars k3 d10 k3, PS), the target mRNA inhibition (MM.1R, 1 µM) was found to be 47%. Turning to GGCCAACGACTCCACA (sugars k3 d10 k3, PS), for the setting “SK-MEL-28, 4 µM”, the target mRNA inhibition is 23%.

With GTCTATGGGATTATAT (sugars k3 d10 k3, PS), the target mRNA inhibition (SK-MEL-28, 4 µM) was 21%. CTCCTACCCGCCTGCT (sugars k3 d10 k3, PS): the target mRNA inhibition (SK-MEL-28, 4 µM) worked out at 15%.

As for AGCTCTAGACAGAGGC (sugars k3 d10 k3, PS), for the setting “SK-MEL-28, 4 µM”, the target mRNA inhibition is 35%.

In the case of TGGCTGATAATTAATC (sugars k3 d10 k3, PS), the target mRNA inhibition (MM.1R, 1 µM) is -5%. Same read-out and setting: the same measure for AAAGAGCTGGTAGGTC (sugars k3 d10 k3, PS): -35%. “TCTATAGTGTTCCAGG (sugars kkdddddddddekeke, PS)”: the target mRNA inhibition (MM.1R, 0.074 µM) is 5%; the target mRNA inhibition (MM.1R, 0.222 µM) was 17%; the target mRNA inhibition (MM.1R, 0.666 µM) turned out to be 37%; the target mRNA inhibition (MM.1R, 1 µM) was 56% and 50%; the target mRNA inhibition (MM.1R, 2 µM) was found to be 68%.

Turning to TGGTTGGCTGGTCTTT (sugars k3 d10 k3, PS), the target mRNA inhibition by setting is: (MM.1R, 0.0625 µM) 6%; (MM.1R, 0.25 µM) 40%; (MM.1R, 1 µM) 88% and 69%; (MM.1R, 4 µM) 89%.

On to CTGCATGAAAGTGTGT (sugars k3 d10 k3, PS), for which, for the setting “SK-MEL-28, 4 µM”, the target mRNA inhibition amounted to 56%.

Regarding CAGACCTTATGCTTGG (sugars k4 d8 k4, PS), under “SK-MEL-28, 4 µM”, the target mRNA inhibition was 26%. Still for that read-out and setting: to TCAGATGTCACTGATT (sugars k3 d10 k3, PS) belongs 35%; to AACTCTGAGTAGACTT (sugars k3 d10 k3, PS), 28%. On the same count and under the same terms, the same measure for TGTTAGCTACAAAGAG (sugars k3 d10 k3, PS): 47%.

As to CAAACTCCTCAGGGAA (sugars k3 d10 k3, PS), under “SK-MEL-28, 4 µM”, the target mRNA inhibition was determined as 23%. As to TAGGCACATCAATGTT (sugars k3 d10 k3, PS), the target mRNA inhibition (MM.1R, 1 µM) was found to be 12%. On to AACCAGTACAGTCCAC (sugars k3 d10 k3, PS), for which the target mRNA inhibition (SK-MEL-28, 4 µM) was 35%. For ACCGCATTGCTAGATT (sugars k3 d10 k3, PS), under “MM.1R, 1 µM”, the target mRNA inhibition was determined as 27%. Still for that read-out and setting: to “AGTGACTTGCATCCAT (sugars kkdddddddddkdkdk, PS)” belongs 22%. In the case of AGCATCACTATTAAGA (sugars k3 d10 k3, PS), the target mRNA inhibition is -5% (MM.1R, 0.0625 µM); 2% (MM.1R, 0.074 µM); 10% (MM.1R, 0.222 µM); 1% (MM.1R, 0.25 µM); 10% (MM.1R, 0.666 µM); 10% (MM.1R, 1 µM). The target mRNA inhibition was found to be 11% (MM.1R, 2 µM); 26% (MM.1R, 4 µM); 72% (SK-MEL-28, 4 µM). For AAACTTGGGTCACTTA (sugars k3 d10 k3, PS), the target mRNA inhibition (MM.1R, 1 µM) was 5%.

Consider “ACGTGTGCTTGCCAAG (sugars kdddddddddkekeke, PS)”, for which, under “MM.1R, 1 µM”, the target mRNA inhibition was 40% and 35%. As to TGGGTACATGGCAGTG (sugars k3 d10 k3, PS), the target mRNA inhibition (SK-MEL-28, 4 µM) is 74%. With AATTCCTCCACTACCA (sugars k3 d10 k3, PS), for the setting “MM.1R, 1 µM”, the target mRNA inhibition was -41%. As for AACGAGGTAAATCTTC (sugars k3 d10 k3, PS), the target mRNA inhibition (SK-MEL-28, 4 µM) was determined as 51%. As to AGCTGGTAGGTCAAAC (sugars k3 d10 k3, PS), the target mRNA inhibition (SK-MEL-28, 4 µM) was -5%. In the case of TGAGGCATACAGTGTG (sugars k3 d10 k3, PS), the target mRNA inhibition (MM.1R, 1 µM) came out at 18%. Same read-out and setting: to GACTTATTTGTGGCTC (sugars k3 d10 k3, PS) belongs 20%. On to TAAAAGGTTCCTGTCA (sugars k4 d8 k4, PS), for which the target mRNA inhibition (SK-MEL-28, 4 µM) worked out at 43%.

Turning to “AAGTGTCTAAAGTCCC (sugars kkddddddddddkeke, PS)”, for the setting “MM.1R, 1 µM”, the target mRNA inhibition was 10% and 12%. On the same count and under the same terms, the same measure for TATAACGGTGTTTCAG (sugars k3 d10 k3, PS): 36%. Turning to GTTAAAGCAGCATAAT (sugars k3 d10 k3, PS), for the setting “SK-MEL-28, 4 µM”, the target mRNA inhibition was 27%. Same read-out and setting: to TTAAAATATCGCCCAT (sugars k3 d10 k3, PS) belongs 32%; to AGCCAGTGCCAGTTCC (sugars k3 d10 k3, PS), 39%. “CTCTATAGTGTTCCAG (sugars kkkddddddddkekek, PS)”: under “MM.1R, 1 µM”, the target mRNA inhibition is 15%. Still for that read-out and setting: to “AAGCAGTGATGTCAGG (sugars kddddddddddkekek, PS)” belongs 28% and 39%; to GCTAACTTACAGGACT (sugars k3 d10 k3, PS), -8%.

In the case of AGGAACTGACCTAACT (sugars k3 d10 k3, PS), the target mRNA inhibition (SK-MEL-28, 4 µM) came to 31%. Take CTCTGTAACTGACTAA (sugars k3 d10 k3, PS): for the setting “MM.1R, 1 µM”, the target mRNA inhibition worked out at 16%.

For the sequence “TGGGATTATATACTGG (sugars kkdddddddddekeke, PS)”, the target mRNA inhibition (MM.1R, 1 µM) came out at 63%.

For GGATTCTATAAATAGA (sugars k3 d10 k3, PS), the target mRNA inhibition (SK-MEL-28, 4 µM) came out at 25%. The same measure, in the same setting: to TGATGTATACCAACGA (sugars k3 d10 k3, PS) belongs 62% and 87%. Regarding “AAGTTCATGTAAAGTC (sugars kkddddddddddkeke, PS)”, the target mRNA inhibition (MM.1R, 1 µM) is 28% and 20%.

As to ATCTGGATGAGCTTAC (sugars k3 d10 k3, PS), under “SK-MEL-28, 4 µM”, the target mRNA inhibition worked out at 38%. As for CCCGACCCTCCCCAAC (sugars k3 d10 k3, PS), under “MM.1R, 1 µM”, the target mRNA inhibition is -35%. With CAGGAAACCGCTGGCA (sugars k3 d10 k3, PS), the target mRNA inhibition (SK-MEL-28, 4 µM) was determined as 74%.

On to “CTGTTACCGATGCTTC (sugars kkdddddddddkdkdk, PS)”, for which the target mRNA inhibition (MM.1R, 1 µM) is 58% and 52%. On the same count and under the same terms, the same measure for “CACATCAATGTTTTAG (sugars kkddddddddddkeke, PS)”: 25% and 39%.

For the sequence ACAAAATGGTGTGTAA (sugars k3 d10 k3, PS), the target mRNA inhibition (SK-MEL-28, 4 µM) was 7%. Still for that read-out and setting: the same measure for AAGTACTTGGACAGAA (sugars k3 d10 k3, PS): 54%; for AAAGAGGCACCCTCCT (sugars k3 d10 k3, PS): -38%; for AGAGGAATGGCGGATA (sugars k3 d10 k3, PS): 42%.

As to TGGCACAATTCTCTGA (sugars k3 d10 k3, PS), where the note is “SK-MEL-28, 4 µM”, the target mRNA inhibition was 13%. Take AGAAACCCTCATCACC (sugars k3 d10 k3, PS): the target mRNA inhibition (SK-MEL-28, 4 µM) was -5%. GTGTTCCAGGAGATAT (sugars k3 d10 k3, PS): for the setting “MM.1R, 1 µM”, the target mRNA inhibition was found to be 30%. On the same count and under the same terms, the same measure for CTTGGCAGGGAGCGGC (sugars k3 d10 k3, PS): 25%.

For the sequence GAACTAATGTCCCCAG (sugars k3 d10 k3, PS), the target mRNA inhibition (SK-MEL-28, 4 µM) worked out at 61%. In the case of “GTGATAGCTGAGCTGA (sugars kkdddddddddekeke, PS)”, the target mRNA inhibition (MM.1R, 1 µM) was found to be 24%. For the sequence AGCAAGGCCTCTGAGC (sugars k3 d10 k3, PS), under “SK-MEL-28, 4 µM”, the target mRNA inhibition came to 55%. On to CCCATATACATTGAGG (sugars k3 d10 k3, PS), for which, under “MM.1R, 1 µM”, the target mRNA inhibition worked out at 16%. Still for that read-out and setting: the same measure for “AGCTTGATAAAGGCTG (sugars k3 d9 k3 e1, PS)”: 2%. Regarding AAAATATAACGGTGTT (sugars k3 d10 k3, PS), for the setting “SK-MEL-28, 4 µM”, the target mRNA inhibition was 31%.

As for CCTACACAGGCTAATC (sugars k3 d10 k3, PS), for the setting “SK-MEL-28, 4 µM”, the target mRNA inhibition worked out at 13%.

For the sequence CAGCAGGTTTTGAGAC (sugars k3 d10 k3, PS), the target mRNA inhibition (SK-MEL-28, 4 µM) came out at 20%. The same measure, in the same setting: the same measure for TGCAAGCCTCATTCAC (sugars k3 d10 k3, PS): 42%. As for AGGACACTCACAGGCG (sugars k3 d10 k3, PS), the target mRNA inhibition (MM.1R, 1 µM) came out at 8%. As to ATGAACGGAAGTTTAC (sugars k3 d10 k3, PS), the target mRNA inhibition (SK-MEL-28, 4 µM) worked out at 54%. Same read-out and setting: the same measure for AACCAATCCCAACACT (sugars k3 d10 k3, PS): 12%; for ACATATCCATGTTGCA (sugars k3 d10 k3, PS): 79%. Still for that read-out and setting: the same measure for GGACATATTTGCTTTG (sugars k3 d10 k3, PS): 32%. For CTGCCACTGGTAACTG (sugars k3 d10 k3, PS), the target mRNA inhibition (MM.1R, 1 µM) stood at 21%. Turning to “AATGTGTATTACTCTT (sugars kkdddddddddkekek, PS)”, under “MM.1R, 1 µM”, the target mRNA inhibition is 52% and 41%. Turning to CATGAGCTCGGTCAAC (sugars k3 d10 k3, PS), the target mRNA inhibition (MM.1R, 1 µM) was -1%. As to “CAAGTGTCTAAAGTCC (sugars kkddddddddddkeke, PS)”, the target mRNA inhibition (MM.1R, 1 µM) was 16% and 17%. On to “TTTATGTTAGCCAATT (sugars kkdddddddddekeke, PS)”, for which the target mRNA inhibition (MM.1R, 1 µM) was 12% and -13%.

“GAAGCATTTTATCATC (sugars k2 d9 e3 k2, PS)”: the target mRNA inhibition (MM.1R, 1 µM) turned out to be 9%. Turning to TGGCAACCATTTTCAC (sugars k4 d8 k4, PS), where the note is “SK-MEL-28, 4 µM”, the target mRNA inhibition is 7%.

With AAGCAACACGGGAATT (sugars k3 d10 k3, PS), the target mRNA inhibition (SK-MEL-28, 4 µM) was determined as 22%. Same read-out and setting: to GACCAACTGGAAAACC (sugars k3 d10 k3, PS) belongs 56%.
